Experimental data reported in patent US20190119251A1, “AMIDE-SUBSTITUTED ARYLTRIAZOLE DERIVATIVES AND USES THEREOF” (BAYER PHARMA AKTIENGESELLSCHAFT, priority 2016, published 2019).

Tests used:
human V1a receptor = biological target: T1, human V1a receptor (Homo sapiens, UniProt P37288); assay: Cellular in vitro assay for determining vasopressin receptor activity (V1a cell line, aequorin luminescence); type: cell-based; details: for IC50: CHO cell line transfected with the human V1a receptor, agonist [Arg8]-vasopressin at EC50 concentration, read-out: IC50 hV1a; for ratio IC50 hV2/hV1a: ratio of cellular IC50 values, human V2 over human V1a
T1 construct: expressed in transfected cells; host or cells: CHO K1 (Chinese hamster ovary), also stably transfected with modified aequorin
Procedure: (§1) B-1. Cellular In Vitro Assay for Determining Vasopressin Receptor Activity
(§2) The identification of agonists and antagonists of the V 1 a and V2 vasopressin receptors from humans, rats and dogs as well as the quantification of the activity of the compounds of the invention is carried out using recombinant cell lines. These cell lines originally derive from a hamster's ovary epithelial cell (Chinese Hamster Ovary, CHO K1, ATCC: American Type Culture Collection, Manassas, Va. 20108, USA). The test cell lines constitutively express the human, rat or dog
(§3) V1 a or V2 receptors. In case of the Gag-coupled V 1 a receptors, cells are also stably transfected with a modified form of the calcium-sensitive photoproteins aequorin (human and rat V1a) or obelin (dog V 1 a), which, after reconstitution with the cofactor coelenterazine, emit light when there are increases in free calcium concentrations [Rizzuto R, Simpson A W, Brini M, Pozzan T, Nature 358, 325-327 (1992); Illarionov B A, Bondar V S, Illarionova V A, Vysotski E S, Gene 153 (2), 273-274 (1995)]. The resulting vasopressin receptor cells react to stimulation of the recombinantly expressed V 1 a receptors by intracellular release of calcium ions, which can be quantified by the resulting photoprotein luminescence. The Gs-coupled V2 receptors are stably transfected into cell lines expressing the gene for firefly luciferase under control of a CRE-responsible promoter. Activation of V2 receptors induces the activation of the CRE-responsive promoter via cAMP increase, thereby inducing the expression of firefly luciferase. The light emitted by photoproteins of V1a cell lines as well as the light emitted by firefly luciferase of V2 cell lines corresponds to the activation or inhibition of the respective vasopressin receptor. The bioluminescence of the cell lines is detected using a suitable luminometer [Milligan G, Marshall F, Rees S, Trends in Pharmacological Sciences 17, 235-237 (1996)].
Vasopressin V1a Receptor Cell Lines:
On the day before the assay, the cells are plated out in culture medium (DMEM/F12, 2% FCS, 2 mM glutamine, 10 mM HEPES, 5 μg/ml coelenterazine) in 384-well microtiter plates and kept in a cell incubator (96% humidity, 5% v/v CO2, 37° C.). On the day of the assay, test compounds in various concentrations are placed for 10 minutes in the wells of the microtiter plate before the agonist [Arg^8]-vasopressin at EC50 concentration is added. The resulting light signal is measured immediately in a luminometer.
(§4) Table 1A below lists individual IC50 values for the compounds of the invention (including racemic mixtures as well as separated enantiomers) that were obtained from cell lines transfected with the human V1a or V2 receptor: […]

human V2 receptor = biological target: T2, human V2 receptor (Homo sapiens, UniProt P30518); assay: Cellular in vitro assay for determining vasopressin receptor activity (V2 cell line, CRE-luciferase); type: cell-based; details: CHO cell line transfected with the human V2 receptor; agonist [Arg8]-vasopressin at EC50 concentration; 3 hours incubation; read-out: IC50 hV2
T2 construct: expressed in transfected cells; host or cells: CHO K1 (Chinese hamster ovary) expressing firefly luciferase under a CRE-responsive promoter
Procedure: as §1, §2, §3
Vasopressin V2 Receptor Cell Lines:
On the day before the assay, the cells are plated out in culture medium (DMEM/F12, 2% FCS, 2 mM glutamine, 10 mM HEPES) in 384-well microtiter plates and kept in a cell incubator (96% humidity, 5% v/v CO2, 37° C.). On the day of the assay, test compounds in various concentrations and the agonist [Arg^8]-vasopressin at EC50 concentration are added together to the wells, and plates are incubated for 3 hours in a cell incubator. Upon addition of the cell lysis reagent Triton™ and the substrate luciferin, luminescence of firefly luciferase is measured in a luminometer.
as §4

T1 sequence (P37288 whole entry): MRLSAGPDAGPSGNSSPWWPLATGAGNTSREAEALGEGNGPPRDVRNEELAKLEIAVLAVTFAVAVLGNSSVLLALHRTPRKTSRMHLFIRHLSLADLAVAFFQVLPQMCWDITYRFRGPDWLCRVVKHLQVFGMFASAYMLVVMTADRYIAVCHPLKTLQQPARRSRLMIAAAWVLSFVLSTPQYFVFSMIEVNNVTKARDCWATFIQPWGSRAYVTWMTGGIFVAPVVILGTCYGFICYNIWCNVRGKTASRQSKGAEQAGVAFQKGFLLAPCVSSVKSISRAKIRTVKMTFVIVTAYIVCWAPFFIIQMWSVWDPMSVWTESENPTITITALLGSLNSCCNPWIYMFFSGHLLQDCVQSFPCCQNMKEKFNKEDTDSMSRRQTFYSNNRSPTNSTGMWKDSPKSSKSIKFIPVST
T2 sequence (P30518 whole entry): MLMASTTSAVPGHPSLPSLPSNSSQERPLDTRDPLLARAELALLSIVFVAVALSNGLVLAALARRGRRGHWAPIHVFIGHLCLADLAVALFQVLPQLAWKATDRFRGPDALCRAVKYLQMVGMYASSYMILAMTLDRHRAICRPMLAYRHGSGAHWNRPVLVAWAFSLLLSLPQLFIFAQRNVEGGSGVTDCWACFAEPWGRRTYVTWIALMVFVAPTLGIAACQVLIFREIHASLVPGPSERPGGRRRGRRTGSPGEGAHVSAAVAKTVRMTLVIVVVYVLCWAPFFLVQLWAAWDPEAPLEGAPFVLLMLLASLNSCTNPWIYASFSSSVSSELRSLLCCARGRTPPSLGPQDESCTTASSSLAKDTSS

Row | IC50 (human V1a receptor) | ratio IC50 hV2/hV1a (human V1a receptor) | IC50 (human V2 receptor) | SMILES
1 | 0.75 nM | 3.7 | 2.73 nM | CCc1ccccc1-n1nc(Cn2nc(-c3ccc(Cl)cc3)n(C[C@H](O)C(F)(F)F)c2=O)nc1C(N)=O [Example 20, 3-({3-(4-Chlorophenyl)-5-oxo-4-[(2S)-3,3,3-trifluoro-2-hydroxypropyl]-4,5-dihydro-1H-1,2,4-triazol-1-yl}methyl)-1-(2-ethylphenyl)-1H-1,2,4-triazole-5-carboxamide]
2 | 3.5 nM | 4.9 | 17 nM | NC(=O)c1nc(Cn2nc(-c3ccc(Cl)cc3)n(C[C@H](O)C(F)(F)F)c2=O)nn1-c1ccc(F)cc1Cl [Example 26, 1-(2-Chloro-4-fluorophenyl)-3-({3-(4-chlorophenyl)-5-oxo-4-[(2S)-3,3,3-trifluoro-2-hydroxypropyl]-4,5-dihydro-1H-1,2,4-triazol-1-yl}methyl)-1H-1,2,4-triazole-5-carboxamide]
3 | 0.77 nM | 11.1 | 8.46 nM | NC(=O)c1nc(Cn2nc(-c3ccc(Cl)cc3)n(C[C@H](O)C(F)(F)F)c2=O)nn1-c1ccccc1Cl [Example 35, 1-(2-Chlorophenyl)-3-({3-(4-chlorophenyl)-5-oxo-4-[(2S)-3,3,3-trifluoro-2-hydroxypropyl]-4,5-dihydro-1H-1,2,4-triazol-1-yl}methyl)-1H-1,2,4-triazole-5-carboxamide]
4 | 14.5 nM | 0.5 | 7.95 nM | CCc1cccc(C)c1-n1nc(Cn2nc(-c3ccc(Cl)cc3)n(C[C@H](O)C(F)(F)F)c2=O)nc1C(N)=O [Example 31, 3-({3-(4-Chlorophenyl)-5-oxo-4-[(2S)-3,3,3-trifluoro-2-hydroxypropyl]-4,5-dihydro-1H-1,2,4-triazol-1-yl}methyl)-1-(2-ethyl-6-methylphenyl)-1H-1,2,4-triazole-5-carboxamide]
5 | 4.85 nM | 13.3 | 64.5 nM | CC(C)c1ccccc1-n1nc(Cn2nc(-c3ccc(Cl)cc3)n(C[C@H](O)C(F)(F)F)c2=O)nc1C(N)=O [Example 28, 3-({3-(4-Chlorophenyl)-5-oxo-4-[(2S)-3,3,3-trifluoro-2-hydroxypropyl]-4,5-dihydro-1H-1,2,4-triazol-1-yl}methyl)-1-(2-isopropylphenyl)-1H-1,2,4-triazole-5-carboxamide]
6 | 4.5 nM | 9.3 | 41.7 nM | NC(=O)c1nc(Cn2nc(-c3ccc(Cl)cc3)n(C[C@H](O)C(F)(F)F)c2=O)nn1-c1ccccc1OC(F)F [Example 27, 3-({3-(4-Chlorophenyl)-5-oxo-4-[(2S)-3,3,3-trifluoro-2-hydroxypropyl]-4,5-dihydro-1H-1,2,4-triazol-1-yl}methyl)-1-[2-(difluoromethoxy)phenyl]-1H-1,2,4-triazole-5-carboxamide]
7 | 13.3 nM | 1.8 | 24.1 nM | NC(=O)c1nc(Cn2nc(-c3ccc(Cl)cc3)n(C[C@H](O)C(F)(F)F)c2=O)nn1-c1ccccc1F [Example 29, 3-({3-(4-Chlorophenyl)-5-oxo-4-[(2S)-3,3,3-trifluoro-2-hydroxypropyl]-4,5-dihydro-1H-1,2,4-triazol-1-yl}methyl)-1-(2-fluorophenyl)-1H-1,2,4-triazole-5-carboxamide]
8 | 0.54 nM | 3.1 | 1.65 nM | CSc1ccccc1-n1nc(Cn2nc(-c3ccc(Cl)cc3)n(C[C@H](O)C(F)(F)F)c2=O)nc1C(N)=O [Example 18, 3-({3-(4-Chlorophenyl)-5-oxo-4-[(2S)-3,3,3-trifluoro-2-hydroxypropyl]-4,5-dihydro-1H-1,2,4-triazol-1-yl}methyl)-1-[2-(methylsulfanyl)phenyl]-1H-1,2,4-triazole-5-carboxamide]
9 | 1.65 nM | 2.2 | 3.63 nM | NC(=O)c1nc(Cn2nc(-c3ccc(Cl)cc3)n(C[C@H](O)C(F)(F)F)c2=O)nn1-c1c(Cl)cccc1Cl [Example 22, 3-({3-(4-Chlorophenyl)-5-oxo-4-[(2S)-3,3,3-trifluoro-2-hydroxypropyl]-4,5-dihydro-1H-1,2,4-triazol-1-yl}methyl)-1-(2,6-dichlorophenyl)-1H-1,2,4-triazole-5-carboxamide]

Further lines, the compound ahead of its results:

Row | SMILES | IC50 (human V1a receptor) | ratio IC50 hV2/hV1a (human V1a receptor) | IC50 (human V2 receptor)
10 | CCc1cccnc1-n1nc(Cn2nc(-c3ccc(Cl)cc3)n(C[C@H](O)C(F)(F)F)c2=O)nc1C(N)=O [Example 1, 3-({3-(4-Chlorophenyl)-5-oxo-4-[(2S)-3,3,3-trifluoro-2-hydroxypropyl]-4,5-dihydro-1H-1,2,4-triazol-1-yl}methyl)-1-(3-ethylpyridin-2-yl)-1H-1,2,4-triazole-5-carboxamide] | 5.1 nM | 1.7 | 8.73 nM
11 | CCOc1ncccc1-n1nc(Cn2nc(-c3ccc(Cl)cc3)n(C[C@H](O)C(F)(F)F)c2=O)nc1C(N)=O [Example 13, 3-({3-(4-Chlorophenyl)-5-oxo-4-[(2S)-3,3,3-trifluoro-2-hydroxypropyl]-4,5-dihydro-1H-1,2,4-triazol-1-yl}methyl)-1-(2-ethoxypyridin-3-yl)-1H-1,2,4-triazole-5-carboxamide] | 135 nM | 3.9 | 525 nM
12 | Cc1cnccc1-n1nc(Cn2nc(-c3ccc(Cl)cc3)n(C[C@H](O)C(F)(F)F)c2=O)nc1C(N)=O [Example 3, 3-({3-(4-Chlorophenyl)-5-oxo-4-[(2S)-3,3,3-trifluoro-2-hydroxypropyl]-4,5-dihydro-1H-1,2,4-triazol-1-yl}methyl)-1-(3-methylpyridin-4-yl)-1H-1,2,4-triazole-5-carboxamide] | 6.7 nM | 14.0 | 94 nM
13 | NC(=O)c1nc(Cn2nc(-c3ccc(Cl)cc3)n(C[C@H](O)C(F)(F)F)c2=O)nn1-c1cccnc1Cl [Example 10, 3-({3-(4-Chlorophenyl)-5-oxo-4-[(2S)-3,3,3-trifluoro-2-hydroxypropyl]-4,5-dihydro-1H-1,2,4-triazol-1-yl}methyl)-1-(2-chloropyridin-3-yl)-1H-1,2,4-triazole-5-carboxamide] | 97.5 nM | 1.6 | 152 nM
14 | NC(=O)c1nc(Cn2nc(-c3ccc(Cl)cc3)n(C[C@H](O)C(F)(F)F)c2=O)nn1-c1ccncc1F [Example 8, 3-({3-(4-Chlorophenyl)-5-oxo-4-[(2S)-3,3,3-trifluoro-2-hydroxypropyl]-4,5-dihydro-1H-1,2,4-triazol-1-yl}methyl)-1-(3-fluoropyridin-4-yl)-1H-1,2,4-triazole-5-carboxamide] | 70 nM | 3.5 | 248 nM
15 | NC(=O)c1nc(Cn2nc(-c3ccc(Cl)cc3)n(C[C@H](O)C(F)(F)F)c2=O)nn1-c1ccccc1Br [Example 17, 1-(2-Bromophenyl)-3-({3-(4-chlorophenyl)-5-oxo-4-[(2S)-3,3,3-trifluoro-2-hydroxypropyl]-4,5-dihydro-1H-1,2,4-triazol-1-yl}methyl)-1H-1,2,4-triazole-5-carboxamide] | 0.45 nM | 15.6 | 7 nM
16 | Cc1cccnc1-n1nc(Cn2nc(-c3ccc(Cl)cc3)n(C[C@H](O)C(F)(F)F)c2=O)nc1C(N)=O [Example 2, 3-({3-(4-Chlorophenyl)-5-oxo-4-[(2S)-3,3,3-trifluoro-2-hydroxypropyl]-4,5-dihydro-1H-1,2,4-triazol-1-yl}methyl)-1-(3-methylpyridin-2-yl)-1H-1,2,4-triazole-5-carboxamide] | 5.15 nM | 4.5 | 23.2 nM
